Measurements: publication PMC7318245, “Powering Artificial Enzymatic Cascades with Electrical Energy” (Angewandte Chemie (International Ed. in English), 2020)

Molecular target: T1, SH (O2-tolerant, NAD+-reducing hydrogenase, soluble hydrogenase) (Cupriavidus necator, UniProt P22317)
T1 construct: gene hoxF; purified; immobilised on Amberlite FP54; hydrogenase and diaphorase modules; with NAD-reducing hydrogenase HoxS subunit gamma; NAD-reducing hydrogenase HoxS subunit delta; NAD-reducing hydrogenase HoxS subunit beta; NAD-reducing hydrogenase subunit HoxI
Assay: on-line H2 consumption and NADH evolution
Format: biochemical
Settings: immobilised enzyme in cascade; 2 mM NAD+, H2, Tris-HCl 50 mM pD 8.0, 22 °C

T1 sequence (P22317 whole entry): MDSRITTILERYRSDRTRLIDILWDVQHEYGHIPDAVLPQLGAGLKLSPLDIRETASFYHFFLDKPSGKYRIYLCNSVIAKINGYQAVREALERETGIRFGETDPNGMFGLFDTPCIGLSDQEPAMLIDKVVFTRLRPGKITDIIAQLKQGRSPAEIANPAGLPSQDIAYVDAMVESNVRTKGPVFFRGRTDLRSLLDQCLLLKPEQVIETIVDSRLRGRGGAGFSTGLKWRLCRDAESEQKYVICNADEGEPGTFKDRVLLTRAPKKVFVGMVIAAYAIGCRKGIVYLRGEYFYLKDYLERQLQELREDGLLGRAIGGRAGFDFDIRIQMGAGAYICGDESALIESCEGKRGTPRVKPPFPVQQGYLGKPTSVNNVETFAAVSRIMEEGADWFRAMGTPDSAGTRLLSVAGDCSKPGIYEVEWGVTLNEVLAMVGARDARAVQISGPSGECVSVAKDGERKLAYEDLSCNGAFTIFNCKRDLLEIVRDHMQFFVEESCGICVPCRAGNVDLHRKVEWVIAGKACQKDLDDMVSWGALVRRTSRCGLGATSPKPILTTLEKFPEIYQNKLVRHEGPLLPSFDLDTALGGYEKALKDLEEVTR
T1 sequence (P22318 2-234 partner): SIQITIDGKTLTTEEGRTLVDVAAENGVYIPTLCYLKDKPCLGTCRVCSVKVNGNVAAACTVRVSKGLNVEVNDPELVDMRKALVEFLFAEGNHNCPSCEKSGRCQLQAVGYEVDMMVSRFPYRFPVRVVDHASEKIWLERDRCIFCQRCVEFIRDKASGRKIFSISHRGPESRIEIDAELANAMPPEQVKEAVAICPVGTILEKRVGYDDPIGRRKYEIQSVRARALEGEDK
T1 sequence (P22319 whole entry partner): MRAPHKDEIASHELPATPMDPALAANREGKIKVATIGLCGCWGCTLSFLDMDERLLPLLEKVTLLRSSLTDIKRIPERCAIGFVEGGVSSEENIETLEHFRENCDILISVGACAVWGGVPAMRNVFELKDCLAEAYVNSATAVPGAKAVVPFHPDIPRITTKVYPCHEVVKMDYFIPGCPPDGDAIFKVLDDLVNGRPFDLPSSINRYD
T1 sequence (P22320 2-464 partner): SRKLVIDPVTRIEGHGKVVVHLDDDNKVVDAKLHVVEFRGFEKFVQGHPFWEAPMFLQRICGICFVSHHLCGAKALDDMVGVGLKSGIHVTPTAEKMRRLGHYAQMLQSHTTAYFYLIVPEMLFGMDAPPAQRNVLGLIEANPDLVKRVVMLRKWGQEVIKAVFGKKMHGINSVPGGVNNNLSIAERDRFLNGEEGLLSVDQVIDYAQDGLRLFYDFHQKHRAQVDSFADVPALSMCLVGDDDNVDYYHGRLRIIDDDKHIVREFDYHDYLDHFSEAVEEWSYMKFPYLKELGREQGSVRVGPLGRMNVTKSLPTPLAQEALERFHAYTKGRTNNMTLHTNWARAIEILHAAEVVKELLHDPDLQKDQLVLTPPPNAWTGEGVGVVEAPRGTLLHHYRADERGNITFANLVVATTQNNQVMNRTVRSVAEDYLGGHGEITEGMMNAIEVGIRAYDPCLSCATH

For `NC(=O)c1ccc[n+]([C@@H]2O[C@H](COP(=O)(O)OP(=O)(O)OC[C@H]3O[C@@H](n4cnc5c(N)ncnc54)[C@H](O)[C@@H]3O)[C@@H](O)[C@H]2O)c1` [NAD^+], the “on-line H2 consumption and NADH evolution” value was “consumption of H2 (A) and the evolution of NADH (C)”.
